Data from paper PMC6010092, “Novel hits for acetylcholinesterase inhibition derived by docking-based screening on ZINC database” (Journal of Enzyme Inhibition and Medicinal Chemistry, 2018).
“Also recorded” adds a separate entry of the source. Where two headings read alike, the source gives them in different places.

What was measured:
[1] = biological target: T1, AChE from Electrophorus electricus (eeAChE) (Electrophorus electricus, UniProt O42275); experiment: biochemical; format: binding
T1 construct: purchased Sigma Aldrich
T1 sequence (O42275 24-633): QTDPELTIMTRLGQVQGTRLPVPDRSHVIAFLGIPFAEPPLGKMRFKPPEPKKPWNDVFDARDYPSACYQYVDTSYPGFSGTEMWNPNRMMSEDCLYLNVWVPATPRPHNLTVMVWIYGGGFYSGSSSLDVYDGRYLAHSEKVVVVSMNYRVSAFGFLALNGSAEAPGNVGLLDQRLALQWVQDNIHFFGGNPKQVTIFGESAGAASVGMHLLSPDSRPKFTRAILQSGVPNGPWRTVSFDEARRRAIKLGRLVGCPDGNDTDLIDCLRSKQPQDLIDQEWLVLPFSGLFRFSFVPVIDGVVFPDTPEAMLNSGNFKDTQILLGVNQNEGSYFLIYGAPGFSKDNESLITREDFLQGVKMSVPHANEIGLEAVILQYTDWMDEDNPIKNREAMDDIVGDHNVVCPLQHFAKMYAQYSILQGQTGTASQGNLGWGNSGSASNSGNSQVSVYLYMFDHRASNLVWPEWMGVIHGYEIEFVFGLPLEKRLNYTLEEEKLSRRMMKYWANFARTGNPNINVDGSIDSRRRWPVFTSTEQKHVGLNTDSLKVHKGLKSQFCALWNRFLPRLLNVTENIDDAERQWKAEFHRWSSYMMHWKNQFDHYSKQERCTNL
Description: The ITC measurements[40] were performed on NanoITC tool (TA Instruments, Lindon, UT) with 190 µL sample cell and 50 µL syringe. […] The tested compounds were prepared in 5 mM stock solutions in ethanol and diluted to 0.5 mM in 50 mM Tris-HCl pH 7.4 buffer. All samples were degassed prior the experiments. The AChE solution was placed into the sample cell and titrated by the tested compounds in 25 steps of 2 µL at 5 min intervals at 25 °C. The blank samples (buffer lacking AChE) were titrated at the same conditions. The corresponding Kd values were calculated using NanoAnalyze software (TA Instruments, Lindon, UT).

NEURO-2A cells [2] = experiment: Neurotoxicity test, MTT-dye reduction assay; format: cell-based; conditions: for IC50: Mus musculus, N2a, 72-h incubation, MTT, read-out: IC50 Neuro2A; for Neurotoxicity on Neuro-2A cells (in words): concentrations up to 100 µM
Description: Murine neuroblastoma NEURO-2 A cells (German collection DSMZ, Braunschweig, Germany) were cultivated under standard conditions: complete medium (90% DMEM, 10% heat-inactivated FBS, and 1 × non-essential amino acids); 37 °C and5% CO2 in fully humidified atmosphere. The cell line was kept in the logarithmic growth phase by splitting 1:4 once a week using trypsin/EDTA. About 30% of the cells grow like neuronal cells. For the experimental evaluation of the cytotoxicity NEURO-2A, cells were plated in 96-well flat-bottomed cell culture plates at the recommended density of 1 × 10^6 cells/25 cm^2. After 24 h, the cells were treated with various concentrations of the investigational compounds and after 72-h incubation, a MTT-dye reduction assay was performed. Briefly, at the end of incubation, a MTT stock solution (10 mg/ml in PBS) was added (10 µL/well). Plates were further incubated at 37 °C for 4 h. Next, the formazan crystals were dissolved by the addition of 110 µL/well 5% formic acid in 2-propanol (v/v). Absorption was measured at 580 nm wavelength on an automated ELISA reader Labexim LMR1. At least six wells per concentration were used, and data were processed using the GraphPad Prism 5.0 software 2.

PAMPA BBB permeability = format: in vitro ADME; conditions: −logPe, pH 7.4, 25 °C, 4 h, lipid BBB-1
Description: The intestinal and BBB permeabilities were measured by PAMPA Permeability Analyzer (pION Inc.) at the following settings: wavelength analysed 250–500 nm, pH 7.4, temperature 25 °C, permeation time 4 h, lipid formulation GIT-0 and stirring 60 rpm and BBB-1 and no stirring, respectively. […]. Carbamazepine, ketoprofen, and ranitidine were used as controls for intestinal permeability. Theophylline, progesterone, and propranolol were used as controls for BBB permeability.

[3] = PAMPA GIT (intestinal) permeability; format: in vitro ADME; conditions: −logPe, pH 6.2, 25 °C, 4 h, lipid GIT-0
NEURO-2A cells [4] = conditions: read-out: IC50 Neuro2A; cited from earlier work
[5] = cited from earlier work

CN(Cc1ccccc1-c1ccccc1)C(=O)CCn1ccccc1=O [Compound 1, N-Methyl-3-(2-oxo-1-pyridyl)-N-[(2-phenylphenyl)methyl]propanamide]
Kd ([1]; ITC, read-out: Kd): 525 nM
IC50 (NEURO-2A cells [2]): > 100000 nM
Neurotoxicity on Neuro-2A cells (in words) (NEURO-2A cells [2]): non-toxic
pPe pH 7.4 BBB PAMPA (PAMPA BBB permeability): 4.540
pPe pH 6.2 GIT PAMPA [3]: 4.268

O=C(CCn1ccc2ccccc21)NCCCn1cnc2ccccc21 [Compound 2, N-[3-(benzimidazol-1-yl)propyl]-3-indol-1-yl-propanamide]
Kd ([1]; ITC, read-out: Kd): 618 nM
IC50 (NEURO-2A cells [2]): > 100000 nM
Neurotoxicity on Neuro-2A cells (in words) (NEURO-2A cells [2]): absence of toxicity; also recorded: non-toxic
pPe pH 7.4 BBB PAMPA (PAMPA BBB permeability): 4.452
pPe pH 6.2 GIT PAMPA [3]: 4.339

O=C(CCn1nc(-c2ccccc2)ccc1=O)NCCc1ccccc1 [Compound 3, 3-(6-Oxo-3-phenylpyridazin-1(6H)-yl)-N-phenethylpropanamide]
Kd ([1]; ITC, read-out: Kd): 555 nM
IC50 (NEURO-2A cells [2]): > 100000 nM
Neurotoxicity on Neuro-2A cells (in words) (NEURO-2A cells [2]): non-toxic
pPe pH 7.4 BBB PAMPA (PAMPA BBB permeability): 4.294
pPe pH 6.2 GIT PAMPA [3]: 4.207

Cn1cc(CNCc2ccc3ncccc3c2)c(-c2ccccc2F)n1 [Compound 4, 1-[3-(2-fluorophenyl)-1-methyl-pyrazol-4-yl]-N-(6-quinolylmethyl) methanamine]
Kd ([1]; ITC, read-out: Kd): 618 nM
IC50 (NEURO-2A cells [2]): 35000 nM
pPe pH 7.4 BBB PAMPA (PAMPA BBB permeability): 4.258
pPe pH 6.2 GIT PAMPA [3]: 4.251

O=C(Cn1ccc2ccccc21)NCCOc1cccc2cccnc12 [Compound 5, 2-indol-1-yl-N-[2-(8-quinolyloxy)ethyl]acetamide]
Kd ([1]; ITC, read-out: Kd): 517 nM
IC50 (NEURO-2A cells [2]): > 100000 nM
Neurotoxicity on Neuro-2A cells (in words) (NEURO-2A cells [2]): non-toxic
pPe pH 7.4 BBB PAMPA (PAMPA BBB permeability): 4.146
pPe pH 6.2 GIT PAMPA [3]: 4.230

Cn1cc(CNC(=O)N2CCC(C(N)=O)CC2)c(-c2ccccc2)n1 [Compound 6, N^1-((1-methyl-3-phenyl-1H-pyrazol-4-yl)methyl)piperidine-1,4-dicarboxamide]
Kd ([1]; ITC, read-out: Kd): 613 nM
IC50 (NEURO-2A cells [2]): > 100000 nM
Neurotoxicity on Neuro-2A cells (in words) (NEURO-2A cells [2]): non-toxic
pPe pH 7.4 BBB PAMPA (PAMPA BBB permeability): 5.008
pPe pH 6.2 GIT PAMPA [3]: 4.428

Cn1cc(CNCCc2cccc3cccnc23)c(-c2cccnc2)n1 [Compound 7, N-((1-methyl-3-(pyridin-3-yl)-1H-pyrazol-4-yl)methyl)-2-(quinolin-8-yl)ethanamine]
Kd ([1]; ITC, read-out: Kd): 577 nM
IC50 (NEURO-2A cells [2]): > 100000 nM
Neurotoxicity on Neuro-2A cells (in words) (NEURO-2A cells [2]): non-toxic
pPe pH 7.4 BBB PAMPA (PAMPA BBB permeability): 4.267
pPe pH 6.2 GIT PAMPA [3]: 4.246

COc1ccc(CC(=O)N[C@@H](CO)[C@@H](O)c2ccc(N)cc2)cc1 [Compound 8, N-((1S,2S)-1-(4-aminophenyl)-1,3-dihydroxypropan-2-yl)-2-(4-methoxyphenyl)acetamide]
Kd ([1]; ITC, read-out: Kd): 682 nM
IC50 (NEURO-2A cells [2]): > 100000 nM
Neurotoxicity on Neuro-2A cells (in words) (NEURO-2A cells [2]): non-toxic
pPe pH 7.4 BBB PAMPA (PAMPA BBB permeability): 4.731
pPe pH 6.2 GIT PAMPA [3]: 4.469

O=C(Cn1c(=O)[nH]c(=O)c2ccccc21)NCCc1cccc(F)c1 [Compound 9, 2–(2,4-dioxoquinazolin-1-yl)-N-[2-(3-fluorophenyl)ethyl]acetamide]
Kd ITC ([1]; 25 °C, pH 7.4): does not interact; also recorded: Non-binder
IC50 (NEURO-2A cells [2]): > 100000 nM
pPe pH 7.4 BBB PAMPA (PAMPA BBB permeability): 4.628
pPe pH 6.2 GIT PAMPA [3]: 4.361

CC(C)n1cc(CC(=O)NCCc2ccc(O)cc2)c2ccccc21 [Compound 10, N-[2-(4-hydroxyphenyl)ethyl]-2-(1-isopropylindol-3-yl)acetamide]
Kd ([1]; 25 °C, pH 7.4, read-out: Kd ITC): 735 nM
IC50 (NEURO-2A cells [2]): 53000 nM
Neurotoxicity on Neuro-2A cells (in words) (NEURO-2A cells [2]): toxic
pPe pH 7.4 BBB PAMPA (PAMPA BBB permeability): 4.311
pPe pH 6.2 GIT PAMPA [3]: 4.202

COc1ccc2c3c1O[C@H]1C[C@@H](O)C=C[C@@]31CCN(C)C2 [GAL, galantamine]
IC50 (NEURO-2A cells [4]): > 50000 nM
CL [5]: 5.60[47] mL/min/kg
VD^ss [5]: 2.30[47] L/kg
t1/2 [5]: 5.30[47] h
